Like-named read-outs stand apart in the source and are kept apart here.
Tests used:
CD8+ T cells [1] = assay: Meta-analysis of published SARS-CoV-2 CD8 T cell epitope data curated in the IEDB (25 studies); assay type: cell-based, human
CD8+ T cells [2] = details: cited from earlier work
[3] = CD8-restricted SARS-CoV-2 epitopes, Yes = recognized by 3 or more donors/different studies
[4] = CD8S (D) Megapool, antigen S, dominant = recognized in 3 or more donors/studies
[5] = SARS-CoV-2-derived CD8 epitopes, dominant = recognized by 3 or more donors/different studies
[6] = T cell subset (CD4 or CD8) recognizing the SARS-CoV-2-derived epitope
[7] = T cell type (CD4 or CD8) recognizing the SARS-CoV-2 epitope
[8] = SARS-CoV-2 Ag S, T cell type recognizing the epitope
[9] = CD8RE megapool peptides (non-spike SARS-CoV-2 antigens), dominant epitope Yes/No
[10] = CD8R (D) megapool epitopes, dominant = recognized by 3 or more donors/different studies

1260 (WTAGAAAYYVGY) [compound 1260]
Dominant (CD8+ T cells [1]; [3]): Yes (more dominant epitopes are defined by being recognized by 3 or more donors/different studies)

1173 (QLRARSVSPK) [compound 1173]
Dominant (CD8+ T cells [1]; [3]): Yes (more dominant epitopes are defined by being recognized by 3 or more donors/different studies)

1512 (HLMSFPQSA) [compound 1512]
Dominant (CD8+ T cells [1]; [4]): Yes (more dominant epitopes are defined by being recognized by 3 or more donors/different studies)

1180 (VFITLCFTLK) [compound 1180]
Dominant (CD8+ T cells [1]; [3]): Yes (more dominant epitopes are defined by being recognized by 3 or more donors/different studies)

1266 (YLQPRTFLL) [compound 1266]
Dominant (CD8+ T cells [1]; [3]): Yes (more dominant epitopes are defined by being recognized by 3 or more donors/different studies)

861 (FLNRFTTTL) [compound 861]
Dominant (CD8+ T cells [1]; [5]): Yes (more dominant epitopes are defined by being recognized by 3 or more donors/different studies)

1483 (CVADYSVLY) [compound 1483]
Dominant (CD8+ T cells [1]; [4]): Yes (more dominant epitopes are defined by being recognized by 3 or more donors/different studies)

1477 (IYSKHTPINL) [compound 1477]
Dominant (CD8+ T cells [1]; [4]): Yes (more dominant epitopes are defined by being recognized by 3 or more donors/different studies)

502 (SPRWYFYYL) [compound 502]
Dominant (CD8+ T cells [2]; [5]): Yes (more dominant epitopes are defined by being recognized by 3 or more donors/different studies) | Restriction (CD8+ T cells [2]; [6]): CD8

607 (YLKLTDNVYIK) [compound 607]
Restriction (CD8+ T cells [2]; [6]): CD8

1044 (AVASKILGL) [compound 1044]
Restriction (CD8+ T cells [2]; [7]): CD8

1397 (YENQKLIANQF) [compound 1397]
Restriction (CD8+ T cells [2]; [8]): CD8

2986 (KVDGVDVEL) [compound 2986]
Dominant (CD8+ T cells [2]; [9]): Yes (more dominant epitopes are defined by being recognized by 3 or more donors/different studies)

993 (FVNEFYAYLR) [compound 993]
Restriction (CD8+ T cells [2]; [7]): CD8

1439 (VFVSNGTHW) [compound 1439]
Restriction (CD8+ T cells [2]; [8]): CD8

1036 (YYPSARIVY) [compound 1036]
Restriction (CD8+ T cells [2]; [7]): CD8

1454 (NESLIDLQEL) [compound 1454]
Restriction (CD8+ T cells [2]; [8]): CD8

561 (VMVELVAEL) [compound 561]
Restriction (CD8+ T cells [2]; [6]): CD8

1786 (MPASWVMRI) [compound 1786]
Dominant (CD8+ T cells [2]; [10]): Yes (more dominant epitopes are defined by being recognized by 3 or more donors/different studies)

1685 (YYRRATRRIR) [compound 1685]
Dominant (CD8+ T cells [2]; [10]): Yes (more dominant epitopes are defined by being recognized by 3 or more donors/different studies)

1075 (GRVDGQVDL) [compound 1075]
Restriction (CD8+ T cells [2]; [7]): CD8

3048 (KLFIRQEEV) [compound 3048]
Dominant (CD8+ T cells [2]; [9]): Yes (more dominant epitopes are defined by being recognized by 3 or more donors/different studies)

675 (LGDVRETMSY) [compound 675]
Restriction (CD8+ T cells [2]; [6]): CD8

2970 (VYRGTTTYKL) [compound 2970]
Dominant (CD8+ T cells [2]; [9]): Yes (more dominant epitopes are defined by being recognized by 3 or more donors/different studies)

1329 (DAVRDPQTL) [compound 1329]
Restriction (CD8+ T cells [2]; [8]): CD8

1449 (SFKEELDKY) [compound 1449]
Restriction (CD8+ T cells [2]; [8]): CD8

688 (TEIDPKLDNYY) [compound 688]
Restriction (CD8+ T cells [2]; [6]): CD8

1028 (YRGTTTYKL) [compound 1028]
Restriction (CD8+ T cells [2]; [7]): CD8

520 (LLLDRLNQL) [compound 520]
Dominant (CD8+ T cells [2]; [5]): Yes (more dominant epitopes are defined by being recognized by 3 or more donors/different studies) | Restriction (CD8+ T cells [2]; [6]): CD8

1320 (QPYRVVVLSF) [compound 1320]
Restriction (CD8+ T cells [2]; [8]): CD8

599 (VEVQPQLEM) [compound 599]
Restriction (CD8+ T cells [2]; [6]): CD8

1007 (LPYPDPSRIL) [compound 1007]
Restriction (CD8+ T cells [2]; [7]): CD8

665 (MSALNHTKK) [compound 665]
Restriction (CD8+ T cells [2]; [6]): CD8

689 (EIDPKLDNY) [compound 689]
Restriction (CD8+ T cells [2]; [6]): CD8

994 (FVNEFYAYL) [compound 994]
Restriction (CD8+ T cells [2]; [7]): CD8

2921 (RIRGGDGKMK) [compound 2921]
Dominant (CD8+ T cells [2]; [9]): Yes (more dominant epitopes are defined by being recognized by 3 or more donors/different studies)

1373 (EVFAQVKQIY) [compound 1373]
Restriction (CD8+ T cells [2]; [8]): CD8

2947 (TVLSFCAFAV) [compound 2947]
Dominant (CD8+ T cells [2]; [9]): Yes (more dominant epitopes are defined by being recognized by 3 or more donors/different studies)

1766 (SAPPAQYEL) [compound 1766]
Dominant (CD8+ T cells [2]; [10]): Yes (more dominant epitopes are defined by being recognized by 3 or more donors/different studies)

1737 (SSNVANYQK) [compound 1737]
Dominant (CD8+ T cells [2]; [10]): Yes (more dominant epitopes are defined by being recognized by 3 or more donors/different studies)

2990 (KMQRMLLEK) [compound 2990]
Dominant (CD8+ T cells [2]; [9]): Yes (more dominant epitopes are defined by being recognized by 3 or more donors/different studies)

1368 (GSFCTQLNR) [compound 1368]
Restriction (CD8+ T cells [2]; [8]): CD8

630 (TTYPGQGLNGY) [compound 630]
Restriction (CD8+ T cells [2]; [6]): CD8

1310 (FERDISTEIY) [compound 1310]
Restriction (CD8+ T cells [2]; [8]): CD8

963 (YRYNLPTM) [compound 963]
Restriction (CD8+ T cells [2]; [7]): CD8

1677 (AVILRGHLR) [compound 1677]
Dominant (CD8+ T cells [2]; [10]): Yes (more dominant epitopes are defined by being recognized by 3 or more donors/different studies)

1328 (KFLPFQQFGR) [compound 1328]
Restriction (CD8+ T cells [2]; [8]): CD8

3045 (HLVDFQVTI) [compound 3045]
Dominant (CD8+ T cells [2]; [9]): Yes (more dominant epitopes are defined by being recognized by 3 or more donors/different studies)

1013 (LTNDNTSRYW) [compound 1013]
Restriction (CD8+ T cells [2]; [7]): CD8

1349 (RSVASQSII) [compound 1349]
Restriction (CD8+ T cells [2]; [8]): CD8

2926 (ATEGALNTPK) [compound 2926]
Dominant (CD8+ T cells [2]; [9]): Yes (more dominant epitopes are defined by being recognized by 3 or more donors/different studies)

1763 (QEILGTVSW) [compound 1763]
Dominant (CD8+ T cells [2]; [10]): Yes (more dominant epitopes are defined by being recognized by 3 or more donors/different studies)

1795 (ALRANSAVK) [compound 1795]
Dominant (CD8+ T cells [2]; [10]): Yes (more dominant epitopes are defined by being recognized by 3 or more donors/different studies)

2952 (KLFDRYFKY) [compound 2952]
Dominant (CD8+ T cells [2]; [9]): Yes (more dominant epitopes are defined by being recognized by 3 or more donors/different studies)

1426 (QSAPHGVVF) [compound 1426]
Restriction (CD8+ T cells [2]; [8]): CD8

947 (FPPTSFGPL) [compound 947]
Restriction (CD8+ T cells [2]; [7]): CD8

603 (TIEVNSFSGY) [compound 603]
Restriction (CD8+ T cells [2]; [6]): CD8

933 (FVENPDILRV) [compound 933]
Restriction (CD8+ T cells [2]; [7]): CD8

967 (KSAGFPFNKW) [compound 967]
Restriction (CD8+ T cells [2]; [7]): CD8

955 (QTVKPGNFNK) [compound 955]
Restriction (CD8+ T cells [2]; [7]): CD8

696 (FADDLNQLTGY) [compound 696]
Dominant (CD8+ T cells [2]; [5]): Yes (more dominant epitopes are defined by being recognized by 3 or more donors/different studies) | Restriction (CD8+ T cells [2]; [6]): CD8

1070 (NTFTRLQSL) [compound 1070]
Restriction (CD8+ T cells [2]; [7]): CD8

1083 (SVVSKVVKV) [compound 1083]
Restriction (CD8+ T cells [2]; [7]): CD8

1719 (ISDYDYYRY) [compound 1719]
Dominant (CD8+ T cells [2]; [10]): Yes (more dominant epitopes are defined by being recognized by 3 or more donors/different studies)

2917 (NTASWFTAL) [compound 2917]
Dominant (CD8+ T cells [2]; [9]): Yes (more dominant epitopes are defined by being recognized by 3 or more donors/different studies)

1326 (VLTESNKKF) [compound 1326]
Restriction (CD8+ T cells [2]; [8]): CD8

3052 (KLGSLVVRC) [compound 3052]
Dominant (CD8+ T cells [2]; [9]): Yes (more dominant epitopes are defined by being recognized by 3 or more donors/different studies)

3032 (CTDDNALAYY) [compound 3032]
Dominant (CD8+ T cells [2]; [9]): Yes (more dominant epitopes are defined by being recognized by 3 or more donors/different studies)

1764 (TTDPSFLGRY) [compound 1764]
Dominant (CD8+ T cells [2]; [10]): Yes (more dominant epitopes are defined by being recognized by 3 or more donors/different studies)

1318 (YQPYRVVVL) [compound 1318]
Restriction (CD8+ T cells [2]; [8]): CD8

604 (IEVNSFSGY) [compound 604]
Restriction (CD8+ T cells [2]; [6]): CD8

1792 (FTYASALWEI) [compound 1792]
Dominant (CD8+ T cells [2]; [10]): Yes (more dominant epitopes are defined by being recognized by 3 or more donors/different studies)

624 (APYIVGDVV) [compound 624]
Restriction (CD8+ T cells [2]; [6]): CD8

1088 (LPKGIMMNV) [compound 1088]
Restriction (CD8+ T cells [2]; [7]): CD8

673 (GEAANFCAL) [compound 673]
Restriction (CD8+ T cells [2]; [6]): CD8

692 (YYKKDNSYF) [compound 692]
Restriction (CD8+ T cells [2]; [6]): CD8

2920 (YYRRATRRIR) [compound 2920]
Dominant (CD8+ T cells [2]; [9]): Yes (more dominant epitopes are defined by being recognized by 3 or more donors/different studies)

637 (AIVSTIQRK) [compound 637]
Restriction (CD8+ T cells [2]; [6]): CD8

1781 (GTDLEGNFY) [compound 1781]
Dominant (CD8+ T cells [2]; [10]): Yes (more dominant epitopes are defined by being recognized by 3 or more donors/different studies)

1774 (FSAVGNICY) [compound 1774]
Dominant (CD8+ T cells [2]; [10]): Yes (more dominant epitopes are defined by being recognized by 3 or more donors/different studies)

1696 (LLLDRLNQL) [compound 1696]
Dominant (CD8+ T cells [2]; [10]): Yes (more dominant epitopes are defined by being recognized by 3 or more donors/different studies)

1443 (HWFVTQRNF) [compound 1443]
Restriction (CD8+ T cells [2]; [8]): CD8

2919 (FPRGQGVPI) [compound 2919]
Dominant (CD8+ T cells [2]; [9]): Yes (more dominant epitopes are defined by being recognized by 3 or more donors/different studies)

927 (NLIDSYFVV) [compound 927]
Restriction (CD8+ T cells [2]; [7]): CD8
